Test results reported in US20240327364A1, “THERAPEUTIC TARGETING OF GPR68 TO INDUCE FERROPTOSIS” (University Of Maryland, Baltimore, priority 2023, published 2024).
Where two headings read alike, the source gives them in different places.

What was measured:
Lpa1 = Lpa1 (Homo sapiens, UniProt Q92633); assay: Lpa1 activity of OGM analogs (Table 5); format: cell-based
Protocol: GPCR profiling assays were performed by Millipore (St. Louis, MO) using in cells expressing Gα15, a promiscuous G protein that enhances GPCR coupling to downstream Ca2+ signaling pathways. KinomeScan was conducted by DiscoveRx (Fremont, CA). Since GPCRs represent >30% of targets for FDA-approved small molecules and are known to modulate cell migration, activity against 158 GPCRs was assessed based on their chemical structures. GPCRs (158) were tested for agonist and antagonist activity at 10 μM. […] Chemical segregation analysis of zebrafish phenotype was conducted to further identify the inhibitory activity responsible for the zebrafish phenotype. […] The identities of the R groups in Formula A are shown below in Table 5.

zebrafish embryo = assay: Zebrafish embryo phenotype; format: in vivo
Protocol: A chemical screen for small molecules that perturb embryonic development (dorsoventral axis) in zebrafish was performed as previously described (see Chen et al., 2009; Hao et al., 2013; Williams et al., 2015; Yu et al., 2008)). Briefly, pairs of WT zebrafish were mated, and fertilized eggs were arrayed in 96-well microtiter plates (5 embryos/well) containing […] E3 water. At 4 hours post fertilization (pf), a small molecule library from Vanderbilt High Throughput Screening Facility was added to each well to a final concentration of 10 μM. Embryos were incubated at 28.5 C until 24 and 48 hours pf, when they were examined for gross morphologic changes indicative of reproducible embryonic defects (dorsalization of the embryonic axis). A total of 30,000 compounds were screened. To discover novel small molecule modulators of embryonic development an unbiased screen of ˜30,000 small molecules was conducted, in which the compounds were assayed for their ability to induce phenotypic changes in the morphology of zebrafish. Further information on these assays can be found in Hao et al., 2013 and Williams et al., 2015. […] This compound was identified based on the phenotype of aberrant pigmentation. Compare FIG. 2B and FIG. 2C, which show a dorsal view of a representative DMSO vehicle control-treated zebrafish embryo at 48 hours pf and a dorsal view of a representative OGM1 (10 uM)-treated zebrafish embryo at 48 hours pf. […] Since GPCRs represent >30% of targets for FDA-approved small molecules and are known to modulate cell migration, activity against 158 GPCRs was assessed based on their chemical structures. GPCRs (158) were tested for agonist and antagonist activity at 10 μM. […] Chemical segregation analysis of zebrafish phenotype was conducted to further identify the inhibitory activity responsible for the zebrafish phenotype. […] The identities of the R groups in Formula A are shown below in Table 5.

GPR68/OGR1 = target: T1, GPR68/OGR1 (Homo sapiens, UniProt Q15743); assay: CHEM1-OGR1 cells Fluo-8 calcium assay, acidified media pH 6.4; format: cell-based
T1 construct: host or cells: Chem-1 (CHEM1-OGR1) cells
T1 sequence (Q15743 whole entry): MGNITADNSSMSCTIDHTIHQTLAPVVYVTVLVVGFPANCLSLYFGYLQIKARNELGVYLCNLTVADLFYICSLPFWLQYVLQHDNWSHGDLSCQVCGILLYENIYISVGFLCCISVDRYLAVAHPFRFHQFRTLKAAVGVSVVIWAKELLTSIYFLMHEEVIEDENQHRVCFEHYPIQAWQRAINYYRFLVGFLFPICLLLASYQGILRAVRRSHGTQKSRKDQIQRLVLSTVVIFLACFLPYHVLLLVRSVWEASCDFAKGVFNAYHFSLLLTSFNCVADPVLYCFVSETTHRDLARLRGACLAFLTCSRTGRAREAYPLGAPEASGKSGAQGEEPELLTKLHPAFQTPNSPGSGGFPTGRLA
Protocol: Briefly, the methods were: On the day before the assay 20,000 cells per well of CHEM1-OGR1 cells were plated in 10% DMEM containing 10% FBS and 1% Pen/Strep into a 96 well plate. After 24 hours media was removed and cells were stained with 80 μL Fluo-8 calcium indicator dye according to manufacturer's protocol. After staining cells were treated with 20 uL of 4× concentration of test compounds. Using kinetic imaging in the Lionheart HCS fluorescence intensity was continuously measure at 10 frames per second, for 5 seconds before 100 μL of acidified media was added to the well resulting in a pH of 6.4. A ratio of fluorescence intensities prior to addition and at peak were calculated and averaged. The resulting data were platted and using a 4 parameter logistic regression EC50 (the concentration causing 50% effective inhibition) for each test compound was determined.

LPS-induced ALI = assay: LPS-induced acute lung injury; format: in vivo, mice
Description: PMN (polymorphonuclear neutrophils).

[1] = concentrations up to 200× the IC50
[2] = concentration causing 50% effective inhibition of calcium response to pH 6.4, read-out: EC50

Sequence of Lpa1 (Q92633 whole entry, species assumed): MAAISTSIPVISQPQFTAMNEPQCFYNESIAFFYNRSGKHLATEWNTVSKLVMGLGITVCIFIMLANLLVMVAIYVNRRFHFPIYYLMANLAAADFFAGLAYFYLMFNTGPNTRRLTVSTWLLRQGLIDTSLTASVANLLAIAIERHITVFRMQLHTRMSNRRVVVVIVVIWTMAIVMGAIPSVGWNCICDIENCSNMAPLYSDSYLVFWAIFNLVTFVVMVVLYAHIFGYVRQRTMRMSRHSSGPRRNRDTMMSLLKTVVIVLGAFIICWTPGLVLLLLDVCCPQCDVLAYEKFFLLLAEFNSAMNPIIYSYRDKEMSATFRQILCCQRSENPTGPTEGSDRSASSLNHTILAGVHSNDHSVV

Structure (SMILES) | EC50 (GPR68/OGR1; [2]) [nM] | other results
Cc1noc(-c2ccc(CSCCC(=O)O)cc2)c1NC(=O)OC(C)c1ccccc1Cl (stereo not drawn) [LPAi] | – | IC50 (Lpa1): 250 nM; induction of zebrafish phenotype (zebrafish embryo; concentrations up to 50 μM, ˜200× its IC50): failed to induce the phenotype; induction of zebrafish phenotype (zebrafish embryo; [1]): failed to induce a noticeable phenotype
Cc1ccc2c(c1)C1(NN=C(c3ccccc3)S1)C(=O)N2 (stereo not drawn) [OGM3] | – | EC50 (GPR68/OGR1; Table 5, read-out: GPR68): 760 nM; IC50 (Lpa1): 6400 nM
CCc1ccc2c(c1)C1(NN=C(c3ccccc3O)S1)C(=O)N2 (stereo not drawn) [OGM4] | – | EC50 (GPR68/OGR1; Table 5, read-out: GPR68): 3400 nM; IC50 (Lpa1): 1400 nM
CN1C(=O)C2(NN=C(c3cccc4ccccc34)S2)c2ccccc21 (stereo not drawn) [OGM6] | – | EC50 (GPR68/OGR1; Table 5, read-out: GPR68): 1500 nM
O=C1Nc2ccc(Cl)cc2C12NN=C(c1ccccc1)S2 (stereo not drawn) [OGM7] | 1170 | –
O=C1Nc2ccccc2C12NN=C(c1ccccc1)S2 (stereo not drawn) [OGM8] | 2740 | –
O=C1Nc2ccc(F)cc2C12NN=C(c1ccccc1)S2 (stereo not drawn) [OGM9] | 2840 | –
COc1ccc(C2=NNC3(S2)C(=O)Nc2ccccc23)cc1 (stereo not drawn) [OGM10] | 1440 | –
COc1ccc(C2=NNC3(S2)C(=O)Nc2ccc(Cl)cc23)cc1 (stereo not drawn) [OGM11] | 4390 | –
COc1ccc(C2=NNC3(S2)C(=O)Nc2ccc(F)cc23)cc1 (stereo not drawn) [OGM12] | 756 | –
O=C1Nc2ccccc2C12NN=C(c1ccc(Cl)cc1)S2 (stereo not drawn) [OGM13] | < 826 | –
O=C1Nc2ccc(F)cc2C12NN=C(c1ccc(Cl)cc1)S2 (stereo not drawn) [OGM14] | 1830 | –
Cc1ccc(C2=NNC3(S2)C(=O)Nc2ccccc23)cc1 (stereo not drawn) [OGM15] | 1060 | –
Cc1ccc(C2=NNC3(S2)C(=O)Nc2ccc(Cl)cc23)cc1 (stereo not drawn) [OGM16] | 785 | –
COc1ccc(C2=NNC3(S2)C(=O)Nc2ccc(OC)cc23)cc1 (stereo not drawn) [OGM17] | 262 | inflammatory cell infiltrates in BAL (LPS-induced ALI; LPS 0.7 mg/kg intratracheally, compounds intraperitoneally): reduced inflammatory cell infiltrates in BAL; reversal of markers of ALI, comparison with OGM2 (LPS-induced ALI; mouse, in vivo): much more potent in reversing the markers of ALI due to LPS in vivo
Cc1ccc(C2=NNC3(S2)C(=O)Nc2ccc(F)cc23)cc1 (stereo not drawn) [OGM18] | 769 | –
O=C1Nc2ccc(Cl)cc2C12NN=C(c1ccc(Cl)cc1)S2 (stereo not drawn) [OGM19] | 2320 | –
O=C1Nc2ccccc2C12NN=C(c1ccc(F)cc1)S2 (stereo not drawn) [OGM20] | 4000 | –
O=C1Nc2ccc(Cl)cc2C12NN=C(c1ccc(F)cc1)S2 (stereo not drawn) [OGM21] | 722 | –
COc1ccc2c(c1)C1(NN=C(c3ccc(Cl)cc3)S1)C(=O)N2 (stereo not drawn) [OGM22] | 669 | –

Structure (SMILES) | EC50 (GPR68/OGR1; [2]) [nM] | other results
O=C1Nc2ccc(Cl)cc2C12NN=C(c1cccc3ccccc13)S2 (stereo not drawn) [OGM23] | 500 | –
COc1ccc2cc(C3=NNC4(S3)C(=O)Nc3ccc(Cl)cc34)ccc2c1 (stereo not drawn) [OGM24] | 90 | –
COc1ccc2cc(C3=NNC4(S3)C(=O)Nc3ccc(F)cc34)ccc2c1 (stereo not drawn) [OGM26] | 655 | –
CCc1ccc2c(c1)C1(NN=C(c3ccc4cc(OC)ccc4c3)S1)C(=O)N2 (stereo not drawn) [OGM27] | > 10000 | –
CCc1ccc2c(c1)C1(NN=C(c3ccc(OC)cc3)S1)C(=O)N2 (stereo not drawn) [OGM28] | > 10000 | –
COc1ccc(C2=NNC3(S2)C(=O)N(CC=C(C)C)c2ccc(Cl)cc23)cc1 (stereo not drawn) [OGM29] | > 10000 | –
COc1ccc(C2=NNC3(S2)C(=O)N(CC=C(C)C)c2ccccc23)cc1 (stereo not drawn) [OGM30] | > 10000 | –
CC(C)=CCN1C(=O)C2(NN=C(c3ccc(Cl)cc3)S2)c2cc(Cl)ccc21 (stereo not drawn) [OGM31] | 9080 | –
CC(C)=CCN1C(=O)C2(NN=C(c3cccc4ccccc34)S2)c2cc(Cl)ccc21 (stereo not drawn) [OGM32] | > 10000 | –
CC(C)=CCN1C(=O)C2(NN=C(c3cccc4ccccc34)S2)c2ccccc21 (stereo not drawn) [OGM33] | > 10000 | –
COc1ccc2cc(C3=NNC4(S3)C(=O)N(CC=C(C)C)c3ccccc34)ccc2c1 (stereo not drawn) [OGM34] | > 10000 | –
COc1ccc2cc(C3=NNC4(S3)C(=O)N(CC=C(C)C)c3ccc(Cl)cc34)ccc2c1 (stereo not drawn) [OGM35] | > 10000 | –
CN1C(=O)C2(NN=C(c3ccccc3)S2)c2cc(Br)ccc21 (stereo not drawn) [OGM36] | 5600 | –
COC(=O)c1ccc2c(c1)C1(NN=C(c3ccc4ncccc4c3)S1)C(=O)N2 (stereo not drawn) [OGM37] | 3690 | –
COc1ccc2c(c1)C1(NN=C(c3cccc4cccnc34)S1)C(=O)N2 (stereo not drawn) [OGM38] | 2620 | –
COc1ccc2c(c1)NC(=O)C21NN=C(c2ccc3ncccc3c2)S1 (stereo not drawn) [OGM39] | 1170 | –
CCc1ccc2c(c1)C1(NN=C(c3ccc4ncccc4c3)S1)C(=O)N2 (stereo not drawn) [OGM40] | 1190 | –
COC(=O)c1ccc2c(c1)C1(NN=C(c3ccccc3)S1)C(=O)N2 (stereo not drawn) [OGM41] | 2260 | –
O=C(O)c1ccc2c(c1)C1(NN=C(c3ccccc3)S1)C(=O)N2 (stereo not drawn) [OGM42] | 1880 | –
COc1ccc2c(c1)C1(NN=C(c3ccc4ncccc4c3)S1)C(=O)N2 (stereo not drawn) [OGM43] | > 10000 | –

Structure (SMILES) | EC50 (GPR68/OGR1; [2]) [nM] | other results
COC(=O)c1ccc2c(c1)C1(NN=C(c3cccc4cccnc34)S1)C(=O)N2 (stereo not drawn) [OGM44] | 4050 | –
O=C1Nc2ccc(F)cc2C12NN=C(c1cccc3cccnc13)S2 (stereo not drawn) [OGM46] | 1470 | –
COC(=O)c1ccc2c(c1)C1(NN=C(c3cccnc3)S1)C(=O)N2 (stereo not drawn) [OGM47] | > 10000 | –
CCc1ccc2c(c1)C1(NN=C(c3cccnc3)S1)C(=O)N2 (stereo not drawn) [OGM48] | > 10000 | –
CCc1ccc2c(c1)C1(NN=C(c3ccnc(OC)c3)S1)C(=O)N2 (stereo not drawn) [OGM49, 5-ethyl-5′-(2-methoxypyridin-4-yl)-1,2-dihydro-3′H-spiro[indole-3,2′-[1,3,4]thiadiazol]-2-one: 2,2,2-trifluoroacetic acid] | 1420 | –
COc1ccc2c(c1)NC(=O)C21NN=C(c2ccnc(OC)c2)S1 (stereo not drawn) [OGM51] | 3570 | –
NS(=O)(=O)c1ccc2c(c1)C1(NN=C(c3ccccc3)S1)C(=O)N2 (stereo not drawn) [OGM52] | 3730 | –
O=C(O)c1ccc2c(c1)C1(NN=C(c3ccc4ncccc4c3)S1)C(=O)N2 (stereo not drawn) [OGM54] | 4770 | –
NS(=O)(=O)c1ccc2c(c1)C1(NN=C(c3ccc4ncccc4c3)S1)C(=O)N2 (stereo not drawn) [OGM55] | 3930 | –
O=C1Nc2ccc(F)cc2C12NN=C(c1cccnc1)S2 (stereo not drawn) [OGM56] | 3580 | –
CCc1ccc2c(c1)C1(NN=C(c3cccc4cccnc34)S1)C(=O)N2 (stereo not drawn) [OGM58] | 5480 | –
COc1ccc2c(c1)NC(=O)C21NN=C(c2ccncc2)S1 (stereo not drawn) [OGM59] | 832 | –
O=C(O)c1ccc2c(c1)C1(NN=C(c3cccnc3)S1)C(=O)N2 (stereo not drawn) [OGM61] | 2190 | –
COc1ccc2c(c1)C1(NN=C(c3ccnc(OC)c3)S1)C(=O)N2 (stereo not drawn) [OGM63] | 3520 | –
CCc1ccc2c(c1)C1(NN=C(c3ccc(C(F)(F)F)nc3)S1)C(=O)N2 (stereo not drawn) [OGM71] | 10500 | –
COc1ccc2c(c1)C1(NN=C(c3ccc(Br)cc3)S1)C(=O)N2 (stereo not drawn) [OGM73] | > 10000 | –
O=C1Nc2ccc(F)cc2C12NN=C(c1ccc(Br)cc1)S2 (stereo not drawn) [OGM74] | 296 | –
COc1ccc2c(c1)C1(NN=C(c3ccc(C(F)(F)F)nc3)S1)C(=O)N2 (stereo not drawn) [OGM75] | 1590 | –
O=C1Nc2ccc(F)cc2C12NN=C(c1ccc(C(F)(F)F)nc1)S2 (stereo not drawn) [OGM76] | 5760 | –
COc1cc(Br)c(S(=O)(=O)Nc2ccc(Cl)c(O[C@@H]3CCN(C)C3)c2)cc1OC [UT2i] | – | induction of zebrafish phenotype (zebrafish embryo; [1]): failed to induce a noticeable phenotype
